Earlier results as cited in US7514484B2, “Aqueous dispersion of polytetrafluoroethylene and process for its production” (Asahi Glass Company, Limited, priority 2005, dated 2009).
Where two headings read alike, the source gives them in different places.

[1] = additives of Table 3, value of the corresponding acid
[2] = carboxylic acid corresponding to the salt of formula (4)

Molecule	pKa [1]	pKa [2]
CCCCCCCCCCCC(=O)O.N [(d), ammonium laurate]	4.6	
O=C(O)C(F)c1ccccc1 (stereo not shown) [fluorophenyl acetic acid]		4.3
CCCCCCCCCCCC(=O)O [lauric acid]		4.6
ammonium fluorophenyl acetate [(f)]	4.3	
